Active and inactive are the calls of the source.
Legend:
[1] = target: Delta-type opioid receptor (Homo sapiens, UniProt P41143); assay: Counterscreen for agonists of heterodimerization of the mu 1 (OPRM1) and delta 1 (OPRD1) opioid receptors: Luminescence-based cell-based high throughput dose response assay to identify agonists of OPRD1 homodimerization. [Related pubchem assays (depositor defined):AID504326, AID504355, AID504692, AID504904, AID504905]; assay type: functional
Mu-type opioid receptor = Mu-type opioid receptor (Homo sapiens, UniProt P35372); assay: Counterscreen for agonists of heterodimerization of the mu 1 (OPRM1) and delta 1 (OPRD1) opioid receptors: Luminescence-based cell-based high throughput dose response assay to identify agonists of OPRM1 homodimerization.; assay type: functional;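 also: U2OS cells expressing OPRM1 and beta-arrestin as split beta-galactosidase partners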
[2] = target: 5-hydroxytryptamine receptor 5A (Homo sapiens, UniProt P47898); assay: Counterscreen for agonists of OPRM1-OPRD1 heterodimerization: luminescence-based cell-based high throughput dose response assay to identify agonists of 5-hydroxytryptamine (serotonin) 5A receptor (HTR5A). [Related pubchem assays (depositor defined):AID504326, AID504355, AID504692, AID504904, AID504905]; assay type: functional
[3] = target: Voltage-gated inwardly rectifying potassium channel KCNH2 (Homo sapiens, UniProt Q12809); conditions: Potency;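 also: confirmatory quantitative high-throughput screen measuring inhibition of hERG channel activity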
[4] = target: T1, Probable nicotinate-nucleotide adenylyltransferase (Staphylococcus aureus (strain N315), UniProt P65502); assay type: functional, Staphylococcus aureus subsp. aureus N315;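 as to IC50 Mean: confirmatory dose-response retesting of NadD inhibitor hits first found in an ultra-high-throughput screen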
[5] = target: T1, Probable nicotinate-nucleotide adenylyltransferase; assay type: functional, Staphylococcus aureus subsp. aureus N315; conditions: read-out: IC50_Mean
Bcl-2-related protein A1 = target: T2, Bcl-2-related protein A1 (Mus musculus, UniProt Q07440); assay type: functional;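 also: confirmatory dose–response counterscreen on Bfl-1, used to check hits from a UBC13 polyubiquitin inhibitor campaign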
T2 sequence (Q07440 whole entry): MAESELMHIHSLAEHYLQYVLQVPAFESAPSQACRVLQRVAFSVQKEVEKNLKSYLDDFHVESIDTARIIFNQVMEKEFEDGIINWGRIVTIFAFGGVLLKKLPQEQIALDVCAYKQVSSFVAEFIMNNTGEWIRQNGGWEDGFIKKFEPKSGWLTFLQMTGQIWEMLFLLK

[6] = target: T3, Ubiquitin-conjugating enzyme E2 N (Homo sapiens, UniProt P61088); assay type: functional
T3 sequence (P61088 whole entry): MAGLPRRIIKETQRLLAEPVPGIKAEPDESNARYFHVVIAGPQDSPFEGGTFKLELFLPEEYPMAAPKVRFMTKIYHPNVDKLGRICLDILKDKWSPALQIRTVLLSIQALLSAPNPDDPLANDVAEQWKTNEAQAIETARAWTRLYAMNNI

[7] = target: T3, Ubiquitin-conjugating enzyme E2 N; assay type: functional; remark: listed apart in the source
[8] = target: T4, Endoribonuclease toxin MazF (Escherichia coli K-12, UniProt P0AE70); assay: activation of MazEF endoribonuclease cleavage – biochemical, fluorescence, single-stranded RNA substrate, uHTS hits, dose response (AID 588481); assay type: functional
T4 sequence (P0AE70 whole entry): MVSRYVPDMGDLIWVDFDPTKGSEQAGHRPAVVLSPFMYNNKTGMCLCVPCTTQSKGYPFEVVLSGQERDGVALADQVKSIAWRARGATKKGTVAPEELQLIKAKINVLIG

[9] = target: T4, Endoribonuclease toxin MazF; assay: substrate-only fluorescence increase artefacts – biochemical, single-stranded RNase substrate, counter-screen for MazEF activator project, dose response (AID 588502); assay type: functional

T1 sequence (P65502 whole entry): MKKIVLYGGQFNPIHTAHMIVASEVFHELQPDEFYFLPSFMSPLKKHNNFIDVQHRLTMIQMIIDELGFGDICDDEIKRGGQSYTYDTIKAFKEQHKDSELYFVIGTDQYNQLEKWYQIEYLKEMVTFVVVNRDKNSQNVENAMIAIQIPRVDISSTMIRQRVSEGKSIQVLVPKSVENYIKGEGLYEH
Chain of Mu-type opioid receptor (P35372 whole entry): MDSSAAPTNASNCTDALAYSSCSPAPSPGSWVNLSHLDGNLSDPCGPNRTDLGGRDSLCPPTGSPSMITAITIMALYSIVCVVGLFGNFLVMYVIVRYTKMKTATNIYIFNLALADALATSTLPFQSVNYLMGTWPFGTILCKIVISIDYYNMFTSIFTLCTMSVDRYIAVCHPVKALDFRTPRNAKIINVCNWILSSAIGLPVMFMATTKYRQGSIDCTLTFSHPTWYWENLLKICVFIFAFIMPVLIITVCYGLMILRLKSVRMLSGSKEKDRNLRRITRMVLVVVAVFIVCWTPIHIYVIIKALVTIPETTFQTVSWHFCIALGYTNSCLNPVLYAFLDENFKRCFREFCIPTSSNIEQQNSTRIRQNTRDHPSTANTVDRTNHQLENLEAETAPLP
Chain of Voltage-gated inwardly rectifying potassium channel KCNH2 (Q12809 whole entry): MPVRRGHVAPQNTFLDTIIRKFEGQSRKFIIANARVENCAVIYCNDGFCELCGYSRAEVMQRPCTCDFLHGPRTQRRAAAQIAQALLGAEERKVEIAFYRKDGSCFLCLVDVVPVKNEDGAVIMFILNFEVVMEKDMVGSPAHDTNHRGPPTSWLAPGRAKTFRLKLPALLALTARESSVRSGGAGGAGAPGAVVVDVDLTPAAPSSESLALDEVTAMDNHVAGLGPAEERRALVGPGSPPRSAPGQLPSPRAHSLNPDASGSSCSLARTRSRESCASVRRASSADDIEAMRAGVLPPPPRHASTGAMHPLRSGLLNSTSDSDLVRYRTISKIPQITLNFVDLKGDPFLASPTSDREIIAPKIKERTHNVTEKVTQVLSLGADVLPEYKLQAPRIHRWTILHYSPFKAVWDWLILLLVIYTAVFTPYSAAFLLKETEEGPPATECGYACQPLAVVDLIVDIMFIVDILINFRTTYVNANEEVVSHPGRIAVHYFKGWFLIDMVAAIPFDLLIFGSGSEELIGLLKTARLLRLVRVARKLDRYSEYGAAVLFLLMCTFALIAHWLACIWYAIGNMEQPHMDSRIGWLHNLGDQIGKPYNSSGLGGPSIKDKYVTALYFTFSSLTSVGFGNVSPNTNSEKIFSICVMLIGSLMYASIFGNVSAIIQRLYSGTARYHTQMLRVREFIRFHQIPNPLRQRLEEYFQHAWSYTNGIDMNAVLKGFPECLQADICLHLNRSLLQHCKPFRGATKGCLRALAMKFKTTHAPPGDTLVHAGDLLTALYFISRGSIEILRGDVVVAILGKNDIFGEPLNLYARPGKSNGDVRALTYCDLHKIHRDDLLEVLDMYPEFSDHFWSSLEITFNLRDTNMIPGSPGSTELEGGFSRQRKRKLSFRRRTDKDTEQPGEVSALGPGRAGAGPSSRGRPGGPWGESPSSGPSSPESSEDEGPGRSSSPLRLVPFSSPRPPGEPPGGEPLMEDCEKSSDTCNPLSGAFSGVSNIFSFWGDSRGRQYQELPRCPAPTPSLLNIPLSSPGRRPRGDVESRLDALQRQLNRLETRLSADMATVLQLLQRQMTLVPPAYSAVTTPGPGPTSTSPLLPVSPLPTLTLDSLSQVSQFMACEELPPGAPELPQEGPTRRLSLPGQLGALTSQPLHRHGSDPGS
Chain of 5-hydroxytryptamine receptor 5A (P47898 whole entry): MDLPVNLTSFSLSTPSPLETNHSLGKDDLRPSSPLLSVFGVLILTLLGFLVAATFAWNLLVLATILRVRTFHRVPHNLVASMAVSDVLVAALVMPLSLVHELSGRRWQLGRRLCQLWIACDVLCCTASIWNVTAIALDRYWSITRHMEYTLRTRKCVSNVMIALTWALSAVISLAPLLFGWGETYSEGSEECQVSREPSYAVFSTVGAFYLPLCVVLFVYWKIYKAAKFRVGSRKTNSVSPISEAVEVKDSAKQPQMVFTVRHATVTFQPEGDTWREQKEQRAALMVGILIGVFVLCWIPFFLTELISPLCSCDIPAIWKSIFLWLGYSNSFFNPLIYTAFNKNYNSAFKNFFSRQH
Chain of Delta-type opioid receptor (P41143 whole entry): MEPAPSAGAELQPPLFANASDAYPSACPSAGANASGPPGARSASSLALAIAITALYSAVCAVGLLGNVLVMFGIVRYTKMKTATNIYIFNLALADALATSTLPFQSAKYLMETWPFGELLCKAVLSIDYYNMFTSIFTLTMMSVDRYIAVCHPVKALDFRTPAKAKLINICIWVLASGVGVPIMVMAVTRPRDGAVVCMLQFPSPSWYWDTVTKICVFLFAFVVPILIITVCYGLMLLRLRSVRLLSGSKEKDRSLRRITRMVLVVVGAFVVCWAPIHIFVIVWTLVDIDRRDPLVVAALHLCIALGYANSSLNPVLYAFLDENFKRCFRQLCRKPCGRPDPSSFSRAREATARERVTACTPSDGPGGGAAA

CN(C(=O)Cc1ccc(Cl)c(Cl)c1)C(CN1CCCC1)c1cccc(OCC(=O)O)c1 (stereo unspecified)
EC50 [1]: 17.2 µM (inactive)
EC50 (Mu-type opioid receptor): > 92.5 µM (inactive)
EC50 [2]: > 92.5 µM (inactive)
AC50 [3]: 35.5 µM (inconclusive)

COc1ccccc1-n1c(SCc2cc(=O)oc3cc(O)ccc23)nc2ccccc2c1=O
IC50 [4]: 15.2 µM (active)
IC50 [5]: 40.2 µM (active)

COc1cc(C2C(C#N)=C(N)Oc3[nH]nc(-c4cccs4)c32)cc(OC)c1O (stereo unspecified)
IC50 (Bcl-2-related protein A1): > 20 µM (inactive)
IC50 [6]: 3.38 µM (active)
IC50 [7]: 1.47 µM (active)
EC50 [8]: > 99 µM (inactive)
EC50 [9]: 13.3 µM (active)

— ChEMBL document CHEMBL1201862, “PubChem BioAssay data set” (2004)
